Measured values as given in patent US20210284621A1 (priority 2018, published 2021).

Legend:
[1] = biological target: T1, CB2 receptor (Homo sapiens, UniProt P34972); experiment: CB2 competitive radioligand binding assay ([3H] WIN-55,212-2); design: expressed in transfected cells; host or cells: CHO-K1 cells; conditions: for inhibition at 0.05 µM: 0.05 μM compound, 2.4 nM [3H] WIN-55,212-2, 90 min 37° C.
Experimental: (§1) J Med Chem. 41(26): 5177-5187 (1998); and Munro S., et al. Molecular characterization of a peripheral receptor for cannabinoids. Nature 365:61-65 (1993).
CB2 Radioligand Binding Assay: A compound of the invention (0.05 μM in 1% DMSO) was incubated with CHO-K1 cells expressing human recombinant CB2 receptor in buffer (20 mM HEPES, pH 7.0, 0.5% BSA) for 90 minutes at 37° C. in the presence of 2.4 nM [H^3] WIN-55,212-2 (CB2 radioligand). % Inhibition was determined as a function of radioligand binding to the […].

[2] = biological target: T2, CB1 receptor (Homo sapiens, UniProt P21554); experiment: CB1 competitive radioligand binding assay ([3H] SR141716A); design: expressed in transfected cells; host or cells: Chem-1 cells; conditions: for inhibition at 0.5 µM: 0.5 μM compound, 2.0 nM [3H] SR141716A, 90 min 37° C.
Experimental: as §1
CB1 Radioligand Binding Assay: A compound of the invention (0.5 μM in 1% DMSO) was incubated with Chem-1 cells expressing human recombinant CB1 receptor in buffer (50 mM HEPES, pH 7.4, 5 mM MgCl2, 1 mM CaCl2, 0.2% BSA) for 90 minutes at 37° C. in the presence of 2.0 nM [H^3] SR141716A (CB1 radioligand). % Inhibition was determined as a function of radioligand binding to the CB1 receptor.

[3] = biological target: T2, CB1 receptor; experiment: cell-based; design: host or cells: PathHunter cell lines; conditions: PathHunter agonist mode; read-out: CB1 Activity (β-Arrestin)
Experimental: (§2) The PathHunter® β-Arrestin assay monitors the activation of a GPCR in a homogenous, non-imaging assay format using a technology developed by DiscoverX called Enzyme Fragment Complementation (EFC) with β-galactosidase (3-Gal) as the functional reporter. […] EA is fused to β-Arrestin and PK is fused to the GPCR of interest.
(§3) PathHunter cell lines were expanded from freezer stocks according to standard procedures. Cells were seeded in a total volume of 20 μL into white walled, 384-well microplates and incubated at 37° C. for the appropriate time prior to testing. For agonist activity determination, cells were incubated with sample to induce response. Intermediate dilution of sample stocks was performed to generate 5× sample in assay buffer. 5 μL of 5× sample was added to cells and incubated at 37° C. or room temperature for 90 to 180 minutes. Vehicle concentration was 1%. Assay signal was generated through a single addition of 12.5 or 15 μL (50% v/v) of PathHunter Detection reagent cocktail, followed by a one hour incubation at room temperature. Microplates were read following signal generation with a PerkinElmer Envision™ instrument for chemiluminescent signal detection. Compound activity was analyzed using CBIS data analysis suite (ChemInnovation, CA). For agonist assays, percentage activity was calculated using the following formula: % Activity=100%×(mean RLU of test sample− mean RLU of vehicle control)/(mean MAX control ligand− mean RLU of vehicle control).

[4] = biological target: T1, CB2 receptor; experiment: cell-based; design: host or cells: cAMP Hunter cell lines; conditions: PathHunter agonist mode; read-out: CB2 Activity (β-Arrestin)
Experimental: as §2, §3

[5] = tested on: LPS-induced PBMCs; experiment: Inflammatory cytokine release from LPS-induced PBMCs (Luminex); assay type: cell-based, human; conditions: fold change from LPS-treated PBMCs, compounds 10 μM (DEX 1 μg/ml) 2 h, then LPS 0.1 μg/ml 24 h, negative = reduced
Experimental: Compounds of the invention were assayed for their effect on inflammatory cytokine release from lipopolysaccharides (LPS)-induced PBMCs, isolated from a human blood sample, the results of which are provided in Table 7 as fold change. Exemplary methods for quantifying secretion of inflammatory cytokines in PBMCs are known in the art, for example, as described in Hailer et al., Infection and Immunity. 68(2):752-759 (2000); and Merlini et al., Frontiers in Immunology. 7:614 (2016); each of which is incorporated herein by reference with respect to methods for evaluating cytokine release in PBMCs.
In brief, human blood samples from healthy volunteers were collected and PBMCs were isolated. PBMCs were cultured and each compound was assayed in triplicate at a final concentration of 10 μM for 2 hours. 1 μg/ml dexamethasone (DEX) served as a positive control. LPS was added at a final concentration of 0.1 μg/ml and further incubated for 24 hours. At the end of the incubation, the supernatants were collected and the levels of a panel of secreted cytokines were measured by a Human Magnetic Luminex® assay (R&D). The results in Table 7 are presented as a fold change from LPS-treated PBMCs. Reduced levels are expressed by negative values. OOR denotes values that are out of the standard curve range for the specific cytokine and thus, could not be accurately measured. Cytotoxicity was also determined. Compounds with cytotoxicity ≥50% was considered cytotoxic. Baseline cytotoxicity of untreated PBMCs was 17% and all compounds presented in Table 7 induced cytotoxicity below 25%.

[6] = OOR = out of standard curve range

T2 sequence (P21554 whole entry): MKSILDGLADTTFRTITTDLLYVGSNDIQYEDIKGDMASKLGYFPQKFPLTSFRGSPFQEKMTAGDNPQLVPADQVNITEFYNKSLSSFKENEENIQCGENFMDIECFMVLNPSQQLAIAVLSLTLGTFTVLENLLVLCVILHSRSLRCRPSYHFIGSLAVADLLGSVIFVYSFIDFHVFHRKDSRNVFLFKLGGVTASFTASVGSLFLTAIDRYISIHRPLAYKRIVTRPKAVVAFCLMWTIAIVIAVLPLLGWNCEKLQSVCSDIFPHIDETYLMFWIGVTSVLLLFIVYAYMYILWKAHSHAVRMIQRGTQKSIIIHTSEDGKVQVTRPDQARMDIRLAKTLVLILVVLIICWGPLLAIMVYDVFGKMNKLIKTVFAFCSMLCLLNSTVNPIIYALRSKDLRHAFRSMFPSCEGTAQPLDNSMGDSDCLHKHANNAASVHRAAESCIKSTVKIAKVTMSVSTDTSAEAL
T1 sequence (P34972 whole entry): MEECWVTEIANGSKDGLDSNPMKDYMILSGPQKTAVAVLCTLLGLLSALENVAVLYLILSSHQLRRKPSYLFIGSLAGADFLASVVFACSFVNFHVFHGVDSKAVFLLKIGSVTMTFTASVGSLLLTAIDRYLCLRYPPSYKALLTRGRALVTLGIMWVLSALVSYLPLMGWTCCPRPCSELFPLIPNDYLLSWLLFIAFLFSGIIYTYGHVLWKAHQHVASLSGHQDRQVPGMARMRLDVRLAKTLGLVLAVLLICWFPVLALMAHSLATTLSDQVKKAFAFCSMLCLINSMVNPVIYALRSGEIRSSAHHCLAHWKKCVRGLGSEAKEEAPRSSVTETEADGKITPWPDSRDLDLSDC

Row | Structure (SMILES) | inhibition at 0.05 µM [1] | inhibition at 0.5 µM [2] | Ki [1] | Ki [2] | Fold Selectivity (CB1/CB2) ([1]; Table 3, ratio of Ki CB1/CB2) | also measured
1 | CCCCCCC(C)(C)c1cc(O)c2c(c1)OC(C)(C)[C@@H]1CC=C(C(N)=O)C[C@@H]21 [Compound 4, (6aR,10aR)-1-Hydroxy-6,6-dimethyl-3-(2-methyloctan-2-yl)-6a,7,10,10a-tetrahydro-6H-benzo[c]chromene-9-carboxamide] | 57% | 70% | – | – | – | –
2 | CCCCCCC(C)(C)c1cc(OC)c2c(c1)OC(C)(C)[C@@H]1CC=C(C(=O)NCCO)C[C@@H]21 [Compound 7, (6aR,10aR)-N-(2-Hydroxyethyl)-1-methoxy-6,6-dimethyl-3-(2-methyloctan-2-yl)-6a,7,10,10a-tetrahydro-6H-benzo[c]chromene-9-carboxamide] | 11% | 21% | – | – | – | –
3 | CCCCCCCC(C)(C)c1cc(O)c2c(c1)OC(C)(C)[C@@H]1CC=C(C(=O)O)C[C@@H]21 [Compound 9, (6aR,10aR)-1-Hydroxy-6,6-dimethyl-3-(2-methylnonan-2-yl)-6a,7,10,10a-tetrahydro-6H-benzo[c]chromene-9-carboxylic acid] | 18% | -8% | – | – | – | –
4 | CCCCCCC(C)(C)c1cc(O)c2c(c1)OC(C)(C)[C@@H]1CC=C(C(=O)Oc3ccc(C(N)=S)cc3)C[C@@H]21 [Compound 10, 4-Carbamothioylphenyl (6aR,10aR)-1-hydroxy-6,6-dimethyl-3-(2-methyloctan-2-yl)-6a,7,10,10a-tetrahydro-6H-benzo[c]chromene-9-carboxylate] | 11% | 7% | – | – | – | –
5 | CCCCCCC(C)(C)c1cc(O)c2c(c1)OC(C)(C)[C@@H]1CC=C(C(=O)N[C@H]3CC[C@H](O)CC3)C[C@@H]21 [Compound 17, (6aR,10aR)-1-Hydroxy-N-(trans-4-hydroxycyclohexyl)-6,6-dimethyl-3-(2-methyloctan-2-yl)-6a,7,10,10a-tetrahydro-6H-benzo[c]chromene-9-carboxamide] | 8% | 23% | – | – | – | –
6 | CCCCCCC(C)(C)c1cc(O)c2c(c1)OC(C)(C)[C@@H]1CC=C(C(=O)N[C@H]3CC[C@@H](O)CC3)C[C@@H]21 [Compound 18, (6aR,10aR)-1-Hydroxy-N-(cis-4-hydroxycyclohexyl)-6,6-dimethyl-3-(2-methyloctan-2-yl)-6a,7,10,10a-tetrahydro-6H-benzo[c]chromene-9-carboxamide] | 26% | 5% | – | – | – | –
7 | CCCCCCC(C)(C)c1cc(OC(C)=O)c2c(c1)OC(C)(C)[C@@H]1CC=C(C#N)C[C@@H]21 [Compound 19, (6aR,10aR)-9-Cyano-6,6-dimethyl-3-(2-methyloctan-2-yl)-6a,7,10,10a-tetrahydro-6H-benzo[c]chromen-1-yl acetate] | 115% | 111% | 1.9 nM | 6.8 nM | – | Fold Selectivity (CB1/CB2) ([1]; Table 2, ratio of Ki CB1/CB2): 4
8 | CC(C)(CCCCCC(=O)O)c1cc(O)c2c(c1)OC(C)(C)[C@@H]1CC=C(C(=O)O)C[C@@H]21 [Compound 40] | – | – | – | – | – | EC50 [3]: > 10000 nM; EC50 [4]: > 1000 nM
9 | CCCCCCC(C)(C)c1cc(O)c2c(c1)OC(C)(C)[C@@H]1CC=C(C(=O)NC34CC5CC(CC(C5)C3)C4)C[C@@H]21 [Compound 42, (6aR,10aR)-N-(adamantan-1-yl)-1-hydroxy-6,6-dimethyl-3-(2-methyloctan-2-yl)-6a,7,10,10a-tetrahydro-6H-benzo[c]chromene-9-carboxamide] | – | – | 175 nM | 59.5 nM | 0.3 | –
10 | CCCCCCC(C)(C)c1cc(O)c2c(c1)OC(C)(C)[C@@H]1CC=C(C(=O)NC34CC5CC(CC(O)(C5)C3)C4)C[C@@H]21 [Compound 43, (6aR,10aR)-1-hydroxy-N-(3-hydroxyadamantan-1-yl)-6,6-dimethyl-3-(2-methyloctan-2-yl)-6a,7,10,10a-tetrahydro-6H-benzo[c]chromene-9-carboxamide] | – | – | 75.6 nM | 891 nM | 11.8 | –
11 | CCCCCCC(C)(C)c1cc(O)c2c(c1)OC(C)(C)[C@@H]1CC=C(C(=O)N[C@@H](C)CCO)C[C@@H]21 [Compound 98, (6aR,10aR)-1-hydroxy-N—((S)-4-hydroxybutan-2-yl)-6,6-dimethyl-3-(2-methyloctan-2-yl)-6a,7,10,10a-tetrahydro-6H-benzo[c]chromene-9-carboxamide] | – | – | 10 nM | 320 nM | 32.0 | –
12 | CCCC(C)(C)c1cc(O)c2c(c1)OC(C)(C)[C@@H]1CC=C(C(=O)NC(C)(C)C(F)(F)F)C[C@@H]21 [Compound 101] | – | – | 84 nM | > 5000 nM | >60 | –
13 | CCCCCCC(C)(C)c1cc(O)c2c(c1)OC(C)(C)[C@@H]1CC=C(C(=O)NC#N)C[C@@H]21 [Compound 106, (6aR,10aR)-N-cyano-1-hydroxy-6,6-dimethyl-3-(2-methyloctan-2-yl)-6a,7,10,10a-tetrahydro-6H-benzo[c]chromene-9-carboxamide] | – | – | 810 nM | 803 nM | 1.0 | –
14 | CC(C)(CCCCCC(=O)O)c1cc(O)c2c(c1)OC(C)(C)[C@@H]1CC=C(C(=O)O)C[C@@H]21 [Compound 111, (6aR,10aR)-3-(7-carboxy-2-methylheptan-2-yl)-1-hydroxy-6,6-dimethyl-6a,7,10,10a-tetrahydro-6H-benzo[c]chromene-9-carboxylic acid] | – | – | > 3000 nM | > 3000 nM | – | –
15 | CCCCCCC(C)(C)c1c(Cl)c(O)c2c(c1Cl)OC(C)(C)[C@@H]1CC=C(C(=O)O)C[C@@H]21 [Compound 113, (6aR,10aR)-2,4-dichloro-1-hydroxy-6,6-dimethyl-3-(2-methyloctan-2-yl)-6a,7,10,10a-tetrahydro-6H-benzo[c]chromene-9-carboxylic acid] | – | – | > 3000 nM | > 3000 nM | – | –
16 | C[C@@H]1C[C@H]2[C@@H]3CCC4=CC(=O)C=C[C@]4(C)[C@@]3(F)[C@@H](O)C[C@]2(C)[C@@]1(O)C(=O)CO [DEX, dexamethasone, reference compound] | – | – | – | – | – | IL17A [5]: −1.5 fold change; IL-1β [5]: −3.8 fold change; IL-4 [5]: −1.5 fold change; IL-6 [5]: −3.9 fold change; IL-8 [5]: −1.0 fold change; IL-10 [5]: −2.0 fold change; MCP-1 [5]: −1.7 fold change; TNFα [5]: −6.0 fold change; IL-12 (p70) [5, 6]: −4.5 fold change; L-31 [5, 6]: −1.6 fold change
